The source of these data is patent publication US10273226B2, “Pyrazolyl-heteroarylamides as pesticides” (Bayer Animal Health GmbH, priority 2014, dated 2019).

What all share (type): in vivo
For experiment [1], the system named is Ctenocephalides felis. Briefly: Ctenocephalides felis in vitro contact test with adult cat fleas. Particulars: application rate 5 μg/cm^2 (500 g/ha); after 48 h; fleas dead or moribund. Summed up:
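Test tubes were coated with 250 μl acetone solution of compound, giving 5 μg/cm^2 at 900 ppm, then dried and stocked with 5-10 adult cat fleas. After 48 h at room temperature and ambient humidity, dead or moribund fleas were counted; efficacy given as % (100% = all dead or moribund).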

Experiment [2] concerns Rhipicephalus sanguineus. Briefly: Rhipicephalus sanguineus in vitro contact test with adult brown dog ticks. As to conditions: application rate 5 μg/cm^2 (500 g/ha); after 48 h; ticks dead or moribund. In outline: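 Test tubes (25 ml) were coated by dissolving active ingredient in acetone p.a., diluting to the required concentration, and spreading 250 μl over the inner walls and base on an orbital shaker at 30 rpm for 2 h. Once dry, 5-10 adult Rhipicephalus sanguineus were added, and tubes were capped with perforated lids and kept horizontal in darkness at room temperature. At 48 h, ticks were knocked down and heated at 45-50° C. for up to 5 min. Those unable to climb away were counted dead or moribund, and efficacy ran from 0% to 100%.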

For experiment [3], the system named is Boophilus microplus Parkhurst strain, SP-resistant. Briefly: Boophilus microplus dip test. Particulars: application rate 100 ppm, assessed after 7 days. The method, then:
Boophilus microplus—Dip Test
Test animals: cattle ticks (Boophilus microplus) Parkhurst strain, SP-resistant
Solvent: dimethyl sulphoxide
10 mg of active ingredient are dissolved in 0.5 ml of dimethyl sulphoxide. For the purpose of producing a suitable formulation, the active ingredient solution is diluted with water to the concentration desired in each case.
This active ingredient formulation is pipetted into tubes. 8-10 adult engorged female cattle ticks (Boophilus microplus) are transferred into a further tube with holes. The tube is immersed into the active ingredient formulation, and all the ticks are completely wetted. After the liquid has run out, the ticks are transferred on filter discs into plastic dishes and stored in a climate-controlled room.
Efficacy is assessed after 7 days by laying of fertile eggs. Eggs which are not visibly fertile are stored in a climate-controlled cabinet until the larvae hatch after about 42 days. An efficacy of 100% means that none of the ticks has laid any fertile eggs; 0% means that all the eggs are fertile.

In experiment [4] the test system is Boophilus microplus. Briefly: Boophilus microplus injection test. As to conditions: application rate 20 μg/animal; injection into abdomen; assessed after 7 days. In outline:
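Compound dissolved in DMSO (10 mg per 0.5 ml, then diluted with DMSO to test concentration); 1 μl injected into the abdomen of 5 engorged adult female ticks, which are then held in a climate-controlled room. Efficacy judged after 7 days by laying of fertile eggs.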

The subject of experiment [5] is Ctenocephalides felis. Briefly: Ctenocephalides felis oral test. Particulars: application rate 100 ppm in citrated cattle blood; after 2 days. In outline: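 Compound dissolved in DMSO (10 mg in 0.5 ml stock) and diluted with citrated cattle blood to test concentration. About 20 unfed adult fleas fed on the treated blood through a parafilm membrane. Kill (%) scored after 2 days; 100% = all fleas dead.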

In experiment [6] the test system is Lucilia cuprina. Briefly: Lucilia cuprina test. As to conditions: application rate 100 ppm; L1 larvae; after 2 days. In outline: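 About 20 L1 larvae placed in vessels with minced horsemeat treated with compound (DMSO concentrate diluted in water) at the desired concentration. Kill (%) scored after 2 days; 100% means all larvae dead, 0% none.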
Experiment [7] has as its system Phaedon cochleariae. Briefly: Phaedon cochleariae spray test. As to conditions: application rate 100 g/ha; larvae; after 7 days. In outline:
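Chinese cabbage leaf discs were sprayed with the compound formulated in water containing 1000 ppm emulsifier. After drying, they were infested with mustard beetle larvae. Efficacy was scored as % larvae killed after 7 days (100% = all dead, 0% = none).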

Experiment [8] has as its system Spodoptera frugiperda. Briefly: Spodoptera frugiperda spray test. As to conditions: application rate 100 g/ha; caterpillars; after 7 days. In outline: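 Maize leaf discs were sprayed with compound formulated in solvent plus water containing 1000 ppm emulsifier, dried, then infested with Spodoptera frugiperda caterpillars. Efficacy in % mortality was scored after 7 days (100% all killed, 0% none).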

Experiment [9] relates to Tetranychus urticae. Nature of the experiment: Tetranychus urticae spray test, OP-resistant. As to conditions: application rate 100 g/ha; after 6 days. Summed up: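 Bean leaf discs (Phaseolus vulgaris) carrying all stages of OP-resistant mites are sprayed with compound formulated in solvent and emulsifier-containing water. Efficacy (% mites killed) is scored after 6 days.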

The subject of experiment [10] is Musca domestica. Nature of the experiment: Musca domestica test. As to conditions: application rate 100 ppm; adult houseflies; after 2 days. In outline:
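Compound dissolved in DMSO (10 mg per 0.5 ml) and diluted with water to the test concentration. Sponges soaked with sugar solution plus formulation were offered to 10 adult houseflies per vessel. Mortality (% kill, 100% = all dead, 0% = none) scored after 2 days.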

The subject of experiment [11] is Myzus persicae. Briefly: Myzus persicae spray test. Particulars: application rate 100 g/ha; after 6 days. As to the method:
Myzus persicae—Spray Test
To produce an appropriate active ingredient formulation, 1 part by weight of active ingredient is dissolved using the specified parts by weight of solvent and made up with water containing an emulsifier concentration of 1000 ppm until the desired concentration is attained. To produce further test concentrations, the preparation is diluted with emulsifier-containing water.
Discs of Chinese cabbage leaves (Brassica pekinensis) infested by all stages of the green peach aphid (Myzus persicae) are sprayed with an active ingredient formulation of the desired concentration.
After 6 days, efficacy in % is determined. 100% means that all the aphids have been killed; 0% means that none of the aphids have been killed.

Consider `Cc1ccc(C(=O)Nc2cc(-c3cnn(-c4c(C(F)(F)F)c(C(F)(F)C(F)(F)F)nn4C)c3)ccc2F)cc1` [Example 1-060], for which the efficacy in experiment [1] is listed as 80%; in experiment [2], 100%; in experiment [7] it was 100%; in experiment [8], 83%; in [9] it was 100%. The “efficacy (laying of fertile eggs)” value in [3] and in experiment [4] was 100% in each case. Further, the “efficacy (kill in %)” value in [5] and in experiment [6] was 100% throughout.
Consider `Cn1nc(C(F)(F)C(F)(F)F)c(C(F)(F)F)c1-n1cc(-c2ccc(F)c(NC(=O)c3cncc(F)c3)c2)cn1` [Example 1-086], for which the efficacy amounted to 100% in [1]; 100% in experiment [2]; 100% in [11]; 100% in experiment [7]; 100% in experiment [8]; 90% in experiment [9]. Also, the “efficacy (laying of fertile eggs)” value in experiment [4] came to 100%. Besides, the “efficacy (kill in %)” value in experiment [5], in experiment [6] and in [10] was 100% each time.
As for `Cn1cc(C(=O)Nc2cccc(-c3cnn(-c4c(C(F)(F)F)c(C(F)(F)C(F)(F)F)nn4C)c3)c2)cn1` [Example 1-019], the “efficacy (laying of fertile eggs)” value in experiment [4] was 100%. The “efficacy (kill in %)” value in experiment [5], in experiment [6] and in [10] was 100% in each case. The efficacy in [11] was 90%; in experiment [7], 100%; in experiment [8], 100%; in experiment [9] it was 100%.
For `Cc1cccc(C(=O)Nc2cc(-c3cnn(-c4c(C(F)(F)F)c(C(F)(F)C(F)(F)F)nn4C)c3)ccc2F)c1C` [Example 1-080], the “efficacy (laying of fertile eggs)” value in [3] and in experiment [4] was 100% in each case. The “efficacy (kill in %)” value in [5] came out at 95%.
Regarding `Cn1nc(C(F)(F)C(F)(F)F)c(C(F)(F)F)c1-n1cc(-c2cccc(NC(=O)c3ccc(F)cc3)c2)cn1` [Example 1-003], the efficacy in [1] came to 100%; in [2] it was 100%; in experiment [11] it was 90%; in experiment [7], 100%; in experiment [8], 100%; in [9], 100%. In experiment [4], the “efficacy (laying of fertile eggs)” value is 100%. Further, the “efficacy (kill in %)” value in experiment [5], in [6] and in [10] was 100% in each case.
For the compound `COc1cccc(C(=O)Nc2cc(-c3cnn(-c4c(C(F)(F)F)c(C(F)(F)C(F)(F)F)nn4C)c3)ccc2F)c1` [Example 1-042], the efficacy in experiment [2], in experiment [7] and in [9] was 100% throughout. Further, the “efficacy (laying of fertile eggs)” value is 90% in experiment [3] and 100% in experiment [4]. Besides, the “efficacy (kill in %)” value in experiment [5] and in [6] was 100% throughout.
For `Cn1nc(C(F)(F)C(F)(F)F)c(C(F)(F)F)c1-n1cc(-c2ccc(F)c(NC(=O)c3cccc(F)c3)c2)cn1` [Example 1-073], the efficacy in experiment [1], in experiment [2], in experiment [7], in experiment [8] and in experiment [9] was 100% throughout. Also, the “efficacy (laying of fertile eggs)” value in [3] and in experiment [4] was 100% throughout. The “efficacy (kill in %)” value is given as 100% in experiment [5], 100% in [6] and 90% in experiment [10].
Take `CN(C(=O)c1ccc(F)cc1)c1cc(-c2cnn(-c3c(C(F)(F)F)c(C(F)(F)C(F)(F)F)nn3C)c2)ccc1F` [Example 1-037]: the efficacy in [1], in [7] and in [8] was 100% throughout. Besides, the “efficacy (laying of fertile eggs)” value in experiment [3] amounted to 80%; in experiment [4] it was 100%. Further, the “efficacy (kill in %)” value in experiment [5] stood at 100%; in [6], 100%; in experiment [10] it was 90%.
Regarding `Cn1nc(C(F)(F)C(F)(F)F)c(C(F)(F)F)c1-n1cc(-c2ccc(F)c(NC(=O)c3ncccn3)c2)cn1` [Example 1-036], the efficacy in experiment [1], in [2], in experiment [11], in experiment [7] and in experiment [8] was 100% throughout. Besides, in [4], the “efficacy (laying of fertile eggs)” value was determined as 100%. The “efficacy (kill in %)” value in [5], in experiment [6] and in experiment [10] was 100% each time.
As to `Cn1nc(C(F)(F)C(F)(F)F)c(C(F)(F)F)c1-n1cc(-c2cccc(NC(=O)c3ccncc3F)c2)cn1` [Example 1-004], the efficacy in experiment [1], in [2], in experiment [7], in [8] and in experiment [9] was 100% each time. The “efficacy (laying of fertile eggs)” value in experiment [3] and in experiment [4] was 100% in each case. The “efficacy (kill in %)” value in [5], in experiment [6] and in experiment [10] was 100% in each case.
Take `Cn1nc(C(F)(F)C(F)(F)F)c(C(F)(F)F)c1-n1cc(-c2cnc(Cl)c(NC(=O)c3ccc(F)cc3)c2)cn1` [Example 2-001]: the efficacy in [2], in experiment [7], in experiment [8] and in [9] was 100% in each case. For the same compound, the “efficacy (laying of fertile eggs)” value came to 80% in experiment [3] and 100% in experiment [4]. Also, the “efficacy (kill in %)” value in experiment [5], in [6] and in experiment [10] was 100% throughout.
With `Cn1nc(C(F)(F)C(F)(F)F)c(C(F)(F)F)c1-n1cc(-c2cccc(NC(=O)c3ccnc(Cl)c3)c2)cn1` [Example 1-006], the efficacy in [1], in experiment [11], in experiment [7], in experiment [8] and in [9] was 100% in each case. Further, in [4], the “efficacy (laying of fertile eggs)” value is reported as 100%. The “efficacy (kill in %)” value in [5], in [6] and in experiment [10] was 100% in each case.
With `Cn1nc(C(F)(F)C(F)(F)F)c(C(F)(F)F)c1-n1cc(-c2ccc(F)c(NC(=O)c3cccs3)c2)cn1` [Example 1-049], the efficacy in [1] and in experiment [2] was 100% each time. Besides, the “efficacy (laying of fertile eggs)” value in [3] and in experiment [4] was 100% throughout. Further, the “efficacy (kill in %)” value in experiment [5] was determined as 100%; in [6], 100%; in experiment [10], 80%.
